Patent publication US9302999B2, “Substituted triazoles as herbicides” (E. I. DU PONT DE NEMOURS AND COMPANY, priority 2012, dated 2016)

Experiments:
corn (Zea mays) = assay: Test F pre-/postemergence: corn; type: in vivo
Source text: (§1) Seeds of plant species selected from corn (Zea mays), soybean (Glycine max), velvetleaf (Abutilon theophrasti), lambsquarters (Chenopodium album), poinsettia, wild (wild poinsettia, Euphorbia heterophylla), pigweed, palmer (palmer pigweed, Amaranthus palmeri), waterhemp (common waterhemp, Amaranthus rudis), surinam grass (Brachiaria decumbens), crabgrass, Brazil (Brazilian crabgrass, Digitaria horizontalis), panicum, fall (fall panicum Panicum dichotomiflorum), crabgrass, large (large crabgrass, Digitaria sanguinalis), foxtail, giant (giant foxtail, Setaria faberii), foxtail, green (green foxtail Setaria viridis), goosegrass (Eleusine indica), ragweed (common ragweed, Ambrosia elatior), barnyardgrass (Echinochloa crus-galli), sandbur (southern sandbur, Cenchrus echinatus), arrowleaf sida (Sida rhombifolia), ryegrass, Italian (Italian ryegrass, Lolium multiflorum), dayflower, VA (Virginia (VA) dayflower, Commelina virginica), field bindweed (Convolvulus arvensis), cocklebur (common cocklebur, Xanthium strumarium), morningglory (Ipomoea coccinea), nightshade (eastern black nightshade, Solanum ptycanthum), kochia (Kochia scoparia), nutsedge, yellow (yellow nutsedge, Cyperus esculentus), johnsongrass (Sorghum halepense), smartweed (ladysthumb smartweed, Polygonum persicaria), and beggarticks (hairy beggarticks, Bidens pilosa), were planted into a silt loam soil and treated preemergence with test chemicals formulated in a non-phytotoxic solvent mixture which included a surfactant. At the same time, plants selected from these crop and weed species and also pigweed (Amaranthus retroflexus), waterhemp_RES1 (ALS/Triazine resistant common waterhemp, Amaranthus rudis) and waterhemp_RES2 (ALS/HPPD resistant common waterhemp, Amaranthus rudis) were planted in pots containing a planting medium comprising spaghnum peat moss, vermiculite, wetting agent and starter nutrients treated with postemergence applications of some of the test chemicals formulated in the same manner. Plants ranged in height from 2 to 18 cm for postemergence treatments (1- to 4-leaf stage).
(§2) Treated plants and controls were maintained in a greenhouse for 14 to 21 days, after which time all species were compared to controls and visually evaluated. Plant response ratings, summarized in Table E, are based on a scale of 0 to 100 where 0 is no effect and 100 is complete control. A dash (-) response means no test result.

[1] = system: velvetleaf (Abutilon theophrasti); assay: Test F pre-/postemergence: velvetleaf; type: in vivo; conditions: Preemergence
Source text: as §1, §2

[2] = system: ryegrass, Italian (Italian ryegrass, Lolium multiflorum); assay: Test F pre-/postemergence: ryegrass, Italian; type: in vivo
Source text: as §1, §2

[3] = system: morningglory (Ipomoea coccinea); assay: Test F pre-/postemergence: morningglory; type: in vivo; conditions: Preemergence
Source text: as §1, §2

[4] = system: foxtail, giant (giant foxtail, Setaria faberii); assay: Test E pre-/postemergence: foxtail, giant; type: in vivo; conditions: Preemergence, scale 0 to 100
Source text: (§3) Seeds of plant species selected from corn (Zea mays), soybean (Glycine max), velvetleaf (Abutilon theophrasti), lambsquarters (Chenopodium album), poinsettia, wild (wild poinsettia, Euphorbia heterophylla), pigweed, palmer (palmer pigweed, Amaranthus palmeri), waterhemp (common waterhemp, Amaranthus rudis), smartweed (ladysthumb smartweed, Polygonum persicaria), surinam grass (Brachiaria decumbens), crabgrass, large (large crabgrass, Digitaria sanguinalis), crabgrass, Brazil (Brazilian crabgrass, Digitaria horizontalis), panicum, fall (fall panicum, Panicum dichotomiflorum), foxtail, giant (giant foxtail, Setaria faberii), foxtail, green (green foxtail, Setaria viridis), goosegrass (Eleusine indica), johnsongrass (Sorghum halepense), ragweed (common ragweed, Ambrosia elation), barnyardgrass (Echinochloa crus-galli), sandbur (southern sandbur, Cenchrus echinatus), arrowleaf sida (Sida rhombifolia), ryegrass, Italian (Italian ryegrass, Lolium multiflorum), dayflower, (VA) (Virginia dayflower, Commelina virginica), field bindweed (Convolvulus arvensis), cocklebur (common cocklebur, Xanthium strumarium), morningglory (Ipomoea coccinea), nightshade (eastern black nightshade, Solanum ptycanthum), kochia (Kochia scoparia), nutsedge, yellow (yellow nutsedge, Cyperus esculentus) and beggarticks (hairy beggarticks, Bidens pilosa) were planted into a silt loam soil and treated preemergence with test chemicals formulated in a non-phytotoxic solvent mixture which included a surfactant. At the same time, plants selected from these crop and weed species were planted in pots containing a growing medium comprising spaghnum peat moss, vermiculite, wetting agent and starter nutrients and treated with postemergence applications of some of the test chemicals formulated in the same manner. Plants ranged in height from 2 to 18 cm for postemergence treatments (1- to 4-leaf stage).
as §2

[5] = system: johnsongrass (Sorghum halepense); assay: Test E pre-/postemergence: johnsongrass; type: in vivo; conditions: Preemergence, scale 0 to 100
Source text: as §3, §2

[6] = system: barnyardgrass (Echinochloa crus-galli); assay: Test E pre-/postemergence: barnyardgrass; type: in vivo; conditions: scale 0 to 100
Source text: as §3, §2

[7] = system: field bindweed (Convolvulus arvensis); assay: Test E pre-/postemergence: field bindweed; type: in vivo; conditions: scale 0 to 100
Source text: as §3, §2

Waterhemp [8] = assay: Test C preemergence: waterhemp; type: in vivo, Amaranthus rudis; conditions: 125 g ai/ha, scale 0 to 100, 0 no effect, 100 complete control
Waterhemp [9] = assay: Test C postemergence: waterhemp; type: in vivo; conditions: 62 g ai/ha, scale 0 to 100 (0 no effect, 100 complete control)
Source text: At the same time, plants selected from these crop and weed species and also barley (winter barley, Hordeum vulgare), canarygrass (Phalaris minor), chickweed (common chickweed, Stellaria media) windgrass (Apera spica-venti) and deadnettle (henbit deadnettle, Lamium amplexicaule) were planted in pots containing Redi-Earth® planting medium (Scotts Company, 14111 Scottslawn Road, Marysville, Ohio 43041) comprising spaghnum peat moss, vermiculite, wetting agent and starter nutrients and treated with postemergence applications of test chemicals formulated in the same manner. Plants ranged in height from 2 to 18 cm (1- to 4-leaf stage) for postemergence treatments.
Treated plants and controls were maintained in a greenhouse for 13 to 15 days, after which time all species were compared to controls and visually evaluated. Plant response ratings, summarized in Table C, are based on a scale of 0 to 100 where 0 is no effect and 100 is complete control. A dash (-) response means no test result.

[10] = Preemergence, 16 g ai/ha, scale 0 to 100 (0 no effect, 100 complete control)
[11] = Preemergence, 31 g ai/ha, scale 0 to 100 (0 no effect, 100 complete control)
[12] = Preemergence, 125 g ai/ha, scale 0 to 100
[13] = 16 g ai/ha, scale 0 to 100 (0 no effect, 100 complete control)
[14] = 31 g ai/ha, scale 0 to 100 (0 no effect, 100 complete control)
[15] = Postemergence, 8 g ai/ha, scale 0 to 100
[16] = Postemergence, 16 g ai/ha, scale 0 to 100
[17] = Postemergence, 31 g ai/ha, scale 0 to 100
[18] = Postemergence, 62 g ai/ha, scale 0 to 100
[19] = Postemergence, 125 g ai/ha, scale 0 to 100

## Fc1ccc(-n2nc(Cc3ccnc(C(F)(F)F)c3)c(OCC(F)(F)F)n2)cc1 [Compound 142]
Corn (Zea mays); [10]
  Plant response rating, Corn: 0
Corn (Zea mays); [11]
  Plant response rating, Corn: 0
Corn (Zea mays); Preemergence, 62 g ai/ha, scale 0 to 100
  Plant response rating, Corn: 0
Corn (Zea mays); [12]
  Plant response rating, Corn: 0
[1]; [13]
  Plant response rating, Velvetleaf: 0
[1]; [14]
  Plant response rating, Velvetleaf: 0
[1]; 125 g ai/ha, scale 0 to 100
  Plant response rating, Velvetleaf: 75
[2]; [10]
  Plant response rating, Ryegrass, Italian: 5
[2]; [11]
  Plant response rating, Ryegrass, Italian: 65
[2]; [12]
  Plant response rating, Ryegrass, Italian: 100
[3]; [13]
  Plant response rating, Morningglory: 0
[3]; [14]
  Plant response rating, Morningglory: 0
[3]; 125 g ai/ha, scale 0 to 100
  Plant response rating, Morningglory: 35

## Cc1nn(-c2ccc(F)cc2)nc1Cc1ccnc(C(F)(F)F)c1 [Compound 16, 4-[[2-(4-fluorophenyl)-5-methyl-2H-1,2,3-triazol-4-yl]methyl]-2-(trifluoromethyl)pyridine]
[4]; 8 g ai/ha
  Plant response rating: Foxtail, Giant: 5
[4]; 16 g ai/ha
  Plant response rating: Foxtail, Giant: 80
[4]; 31 g ai/ha
  Plant response rating: Foxtail, Giant: 100
[4]; 125 g ai/ha
  Plant response rating: Foxtail, Giant: 100
[5]; 8 g ai/ha
  Plant response rating: Johnsongrass: 0
[5]; 16 g ai/ha
  Plant response rating: Johnsongrass: 15
[5]; 31 g ai/ha
  Plant response rating: Johnsongrass: 20
[5]; 62 g ai/ha
  Plant response rating: Johnsongrass: 40
[5]; 125 g ai/ha
  Plant response rating: Johnsongrass: 98
[6]; Preemergence, 8 g ai/ha
  Plant response rating: Barnyardgrass: 0
[6]; Preemergence, 16 g ai/ha
  Plant response rating: Barnyardgrass: 10
[6]; Preemergence, 31 g ai/ha
  Plant response rating: Barnyardgrass: 50
[6]; Preemergence, 62 g ai/ha
  Plant response rating: Barnyardgrass: 98
[6]; Preemergence, 125 g ai/ha
  Plant response rating: Barnyardgrass: 98
[7]; Preemergence, 8 g ai/ha
  Plant response rating: Field Bindweed: 0
[7]; Preemergence, 16 g ai/ha
  Plant response rating: Field Bindweed: 0
[7]; Preemergence, 31 g ai/ha
  Plant response rating: Field Bindweed: 0
[7]; Preemergence, 62 g ai/ha
  Plant response rating: Field Bindweed: 20
[7]; Preemergence, 125 g ai/ha
  Plant response rating: Field Bindweed: 50

## CCOc1nn(-c2ccc(Br)cc2)nc1Cc1ccnc(C(F)(F)F)c1 [Compound 189]
Waterhemp [8]
  Plant response rating, Waterhemp: 100

## Cc1nn(-c2ccc(F)cc2)nc1Oc1ccnc(C(F)(F)F)c1 [Compound 129, 4-[[2-(4-fluorophenyl)-5-methyl-2H-1,2,3-triazol-4-yl]oxy]-2-(trifluoromethyl)pyridine]
[4]; 8 g ai/ha
  Plant response rating: Foxtail, Giant: 0
[4]; 16 g ai/ha
  Plant response rating: Foxtail, Giant: 20
[4]; 31 g ai/ha
  Plant response rating: Foxtail, Giant: 75
[4]; 62 g ai/ha
  Plant response rating: Foxtail, Giant: 98
[4]; 125 g ai/ha
  Plant response rating: Foxtail, Giant: 100
[5]; 8 g ai/ha
  Plant response rating: Johnsongrass: 0
[5]; 16 g ai/ha
  Plant response rating: Johnsongrass: 20
[5]; 31 g ai/ha
  Plant response rating: Johnsongrass: 20
[5]; 62 g ai/ha
  Plant response rating: Johnsongrass: 20
[5]; 125 g ai/ha
  Plant response rating: Johnsongrass: 25
[6]; Preemergence, 8 g ai/ha
  Plant response rating: Barnyardgrass: 0
[6]; Preemergence, 16 g ai/ha
  Plant response rating: Barnyardgrass: 0
[6]; Preemergence, 31 g ai/ha
  Plant response rating: Barnyardgrass: 5
[6]; Preemergence, 62 g ai/ha
  Plant response rating: Barnyardgrass: 10
[6]; Preemergence, 125 g ai/ha
  Plant response rating: Barnyardgrass: 35
[7]; Preemergence, 8 g ai/ha
  Plant response rating: Field Bindweed: 0
[7]; Preemergence, 16 g ai/ha
  Plant response rating: Field Bindweed: 0
[7]; Preemergence, 31 g ai/ha
  Plant response rating: Field Bindweed: 0
[7]; Preemergence, 62 g ai/ha
  Plant response rating: Field Bindweed: 35
[7]; Preemergence, 125 g ai/ha
  Plant response rating: Field Bindweed: 35

## CCCc1nn(-c2ccc(C(F)(F)F)c(F)c2)nc1Oc1ccnc(C(F)(F)F)c1 [Compound 185]
Waterhemp [9]
  Plant response rating, Waterhemp: 90

## Cc1nn(-c2ccc(C(F)(F)F)cc2)nc1Cc1ccnc(C(F)(F)F)c1 [Compound 47, 4-[[5-methyl-2-[4-(trifluoromethyl)phenyl]-2H-1,2,3-triazol-4-yl]methyl]-2-(trifluoromethyl)pyridine]
[4]; 16 g ai/ha
  Plant response rating: Foxtail, Giant: 90
[4]; 31 g ai/ha
  Plant response rating: Foxtail, Giant: 100
[4]; 62 g ai/ha
  Plant response rating: Foxtail, Giant: 100
[4]; 125 g ai/ha
  Plant response rating: Foxtail, Giant: 100
[4]; 250 g ai/ha
  Plant response rating: Foxtail, Giant: 100
[5]; 16 g ai/ha
  Plant response rating: Johnsongrass: 25
[5]; 31 g ai/ha
  Plant response rating: Johnsongrass: 30
[5]; 62 g ai/ha
  Plant response rating: Johnsongrass: 35
[5]; 125 g ai/ha
  Plant response rating: Johnsongrass: 40
[5]; 250 g ai/ha
  Plant response rating: Johnsongrass: 100
[6]; Postemergence, 250 g ai/ha
  Plant response rating: Barnyardgrass: 60
[6]; Postemergence, 16 g ai/ha
  Plant response rating: Barnyardgrass: 30
[6]; Postemergence, 31 g ai/ha
  Plant response rating: Barnyardgrass: 30
[6]; Postemergence, 62 g ai/ha
  Plant response rating: Barnyardgrass: 40
[6]; Postemergence, 125 g ai/ha
  Plant response rating: Barnyardgrass: 45
[6]; Preemergence, 16 g ai/ha
  Plant response rating: Barnyardgrass: 5
[6]; Preemergence, 31 g ai/ha
  Plant response rating: Barnyardgrass: 30
[6]; Preemergence, 62 g ai/ha
  Plant response rating: Barnyardgrass: 85
[6]; Preemergence, 125 g ai/ha
  Plant response rating: Barnyardgrass: 100
[6]; Preemergence, 250 g ai/ha
  Plant response rating: Barnyardgrass: 100
[7]; Postemergence, 250 g ai/ha
  Plant response rating: Field Bindweed: 65
[7]; Postemergence, 31 g ai/ha
  Plant response rating: Field Bindweed: 40
[7]; Preemergence, 16 g ai/ha
  Plant response rating: Field Bindweed: 25
[7]; Preemergence, 31 g ai/ha
  Plant response rating: Field Bindweed: 25
[7]; Preemergence, 62 g ai/ha
  Plant response rating: Field Bindweed: 50
[7]; Preemergence, 125 g ai/ha
  Plant response rating: Field Bindweed: 85
[7]; Preemergence, 250 g ai/ha
  Plant response rating: Field Bindweed: 100

## Cc1nn(-c2ccc(F)c(F)c2)nc1Oc1ccnc(C(F)(F)F)c1 [Compound 145]
Corn (Zea mays); [15]
  Plant response rating, Corn: 5
Corn (Zea mays); [16]
  Plant response rating, Corn: 10
Corn (Zea mays); [17]
  Plant response rating, Corn: 10
Corn (Zea mays); [18]
  Plant response rating, Corn: 10
Corn (Zea mays); [19]
  Plant response rating, Corn: 10
[2]; [15]
  Plant response rating, Ryegrass, Italian: 5
[2]; [16]
  Plant response rating, Ryegrass, Italian: 10
[2]; [17]
  Plant response rating, Ryegrass, Italian: 20
[2]; [18]
  Plant response rating, Ryegrass, Italian: 30
[2]; [19]
  Plant response rating, Ryegrass, Italian: 40
